# According to patent US3966793A (priority 1964, dated 1976):
# Like-named read-outs stand apart in the source and are kept apart here.
# Assays:
# Acute toxicity (M) LD 50 = conditions: in vivo, mouse
# mice [1] = assay: Traction test (mice), myorelaxant activity; type: in vivo; conditions: Mus musculus, read-out: Traction, 50% effective dose
# Source text: This consists in observing when the treated animals are capable of retrieving a rod grasped by the front paws only. Inability to carry this out was interpreted as a sign of myorelaxant activity.
# mice [2] = assay: Balance test: rotating rod (mice) (Equilibration); type: in vivo; conditions: Mus musculus, read-out: Equilibration, 50% effective dose
# Source text: 2. Balance test: rotating rod (mice)
# This test consists in observing whether the treated animals are capable of maintaining their balance on a horizontal rod kept in rotation.
# Numerous neuroleptic compounds or tranquilizers disturb the equilibration reflex.
# mice [3] = assay: Anti-convulsant activity (anti-pentetrazole) (mice); type: in vivo; conditions: mouse, pentetrazole 125 mg./kg. IP, read-out: Anti-pentetrazole, 50% effective dose
# Protocol: 3. Anti-convulsant activity (anti-pentetrazole) (mice)
# Pentetrazole, injected intraperitoneally in a dose of 125 mg./kg. produces fatal convulsions in 100% of the animals.
# Certain compounds exert a protective action preventing convulsions and permitting survival.
# mice [4] = assay: Anti-convulsant activity (electric shock) (mice); type: in vivo; conditions: Mus musculus, ip, read-out: Electric shock, 50% effective dose
# Source text: 4. Anti-convulsant activity (electric shock) (mice)
# The test consists in determining the intensity of the electric current required to produce a fatal shock in a batch of test animals.
# Certain preventively administered compounds effectively protect a certain percentage of animals subjected to an electric current of an intensity which is fatal to untreated animals.
# mice [5] = assay: Exploration test (mice); type: in vivo; conditions: Mus musculus, ip, read-out: Exploration, 50% effective dose
# Protocol: 5. Exploration test (mice)
# This extremely simple test consists in placing a mouse at the center of a floor pierced with holes and in noting how many holes the mouse explores in 5 minutes. This test is carried out in a room in which complete silence is observed and which contains no person except the experimenter who is seated and still. It appeals to the curiosity of the animals. The doses of the compounds employed are, however, very small and considerably less than those required to impair movement. This simple test makes it possible to observe whether the compounds assayed produce a more or less pronounced lack of interest in the environment and it gives information which is interesting from the clinical point of view with regard to the treatment of anxiety and restlessness.
# rat [6] = assay: Spontaneous motor activity in the rat; type: in vivo; conditions: Rattus norvegicus, read-out: Spontaneous motor activity, 50% effective dose
# Source text: (§1) 6. Spontaneous motor activity in the rat and mouse and provoked motor activity
# (§2) The effect of drugs on voluntary movements of animals can be studied statistically by methods, the details of which will not be discussed here. The mouse, which is an extremely lively animal and moves about a great deal, is particularly suitable for this type of experiment.
# mouse [7] = assay: Spontaneous motor activity in the mouse; type: in vivo; conditions: Mus musculus, read-out: Spontaneous motor activity, 50% effective dose
# Source text: as §1, §2
# rat [8] = assay: Benzedrine provoked motor activity (R); type: in vivo; conditions: PO, read-out: Benzedrine provoked motor activity, 50% effective dose
# Source text: as §1, §2
# (§3) Moreover, this spontaneous mobility can be exacerbated by preventive administration to the animals of certain substances such as benzedrine, mescaline and ritaline.
# (§4) The experimental results obtained by these methods give valuable information for clinical purposes with regard to the treatment of ambulatory psychomotor crises.
# mouse [9] = assay: Mescaline provoked motor activity (M); type: in vivo; conditions: PO, read-out: Mescaline provoked motor activity, 50% effective dose
# Source text: as §1, §2, §3, §4
# mouse [10] = assay: Antistrychnine activity; type: in vivo; conditions: po, read-out: Anti-strychnine, 50% effective dose
# Source text: 7. Antistrychnine activity
# mouse [11] = assay: Morphine excitation (M); type: in vivo; conditions: PO, read-out: Morphine excitation, 50% effective dose
# Source text: In the mouse, the action of morphine is different but also manifested by marked central excitation.
# male rat = assay: Combativeness (rat); type: in vivo; conditions: rat, read-out: Combativeness, 50% effective dose
# Source text: It is possible to make a male rat aggressive towards another male rat enclosed in the same cage by passing an electric current of more or less high voltage through the floor of the cage.
# This test, like the preceding one, can obviously give information of clinical value for the treatment of aggression diseases.
# rats = assay: Double box conditioning test (R); type: in vivo; conditions: rat, PO; read-out: Double box conditioning, 50% effective dose
# Source text: The test used consists in educating rats to avoid an electric current passed through the floor of a cage of two compartments when they change compartments. The animal is first warned by a lamp which lights up in the compartment through which the current is passing while the other is in relative darkness.
# This test, which requires more or less daily training at the rate of 50 times for each rat, makes it possible to follow the animals and note their progress. The performances realized at the end of a certain time (3 weeks to 1 month of training) are fairly constant, the percentage of errors made by adequately gifted subjects being less than 10 and very often even zero.
# One would imagine that disturbances produced in these performances which call upon the memory of animals would be of great importance for the choice of a new medicament. A deconditioning drug of sufficient intensity could have the result of partly depriving the patient of the idea of danger and would consequently require special surveillance of the sick persons.
# mouse [12] = assay: Potentiation of narcosis (M); type: in vivo; conditions: PO, read-out: Narcotic potentiation, 50% effective dose
# Source text: 12. Potentiation of narcosis
# Most psycholeptics are hypnotics in large doses, but many of them can, in small doses, without themselves producing any hypnosis, either prolong the time of sleep obtained with a true hypnotic (for example a barbiturate) or appreciably lower the dose of barbiturate required to obtain sleep.
# [13] = Reaction (pH) of aqueous solution; type: physicochemical
# [14] = Stability in aqueous solution; type: physicochemical; conditions: compound A obtained
# central nervous system = assay: Pharmacodynamic / central nervous system tests taken together; type: in vivo
# Source text: A certain number of the compounds described in the present application have been studied with regard to their action on the central nervous system, as psycholeptics, myorrelaxants and tranquilizers. In addition, the acute toxicity has been determined for a number of these compounds.
# It has thereby been possible to make quantitative comparisons of the activity of the different compounds for the different tests employed.
compound,measurement,setting,value
"O=C([O-])C1N=C(c2ccccc2)c2cc(Cl)ccc2NC1=O.[K+] (centres unmarked) [4311 CB, 7-Chloro-2,3-dihydro-2-oxo-5-phenyl-1H-benzo[f]-1,4-diazepine-3-carboxylic acid, potassium salt]",LD50,Acute toxicity (M) LD 50; IP,310 mg/kg
same,LD50,Acute toxicity (M) LD 50; IV,220 mg/kg
same,LD50,Acute toxicity (M) LD 50; PO,870 mg/kg
same,LD50,Acute toxicity (M) LD 50; SC,450 mg/kg
same,ED50,mice [1]; ip,1.75 mg/kg
same,ED50,mice [1]; po,1.35 mg/kg
same,ED50,mice [2]; ip,4.5 mg/kg
same,ED50,mice [2]; po,5 mg/kg
same,ED50,mice [3]; IP,2.9 mg/kg
same,ED50,mice [3]; PO,1.65 mg/kg
same,ED50,mice [4],2.6 mg/kg
same,ED50,mice [5],5 mg/kg
same,ED50,rat [6]; ip,25 mg/kg
same,ED50,rat [6]; po,50 mg/kg
same,ED50,mouse [7]; ip,25 mg/kg
same,ED50,mouse [7]; po,10 mg/kg
same,ED50,rat [8],50 mg/kg
same,ED50,mouse [9],20 mg/kg
same,ED50,mouse [10],20 mg/kg
same,ED50,mouse [11],20 mg/kg
same,ED50,male rat; IP,25 mg/kg
same,ED50,male rat; PO,25 mg/kg
same,ED50,rats,10 mg/kg
same,ED50,mouse [12],2 mg/kg
same,Reaction / pH of aqueous solution,[13],substantially neutral reaction
same,Decarboxylation on heating an aqueous solution,[14],decarboxylated within a few minutes
same,Activity compared with 4306,central nervous system; in vivo,highly active but slightly less so than 4306
same,"Activity, parenteral compared with oral administration",central nervous system; parenteral vs oral,slightly less when administered parenterally than when administered orally
same,Solubility in water,Solubility,completely soluble in water
